Laboratory results as given in publication PMC12457078, “Inhibition of soluble epoxide hydrolase in endotoxin induced pig lung injury” (Frontiers in Pharmacology, 2025).
Values joined by “and” are separate entries in the source; they are usually repeats but may differ in a detail not shown here. Identical values can stand only once.

Tested on: sEH
Assay: oxylipin analysis, epoxide/diol ratios (target engagement)
Format: in vivo, pig
Set-up: 14,15-DiHETE: unit not given beside the values; 12,13-DiHOME / 9,10-DiHODE / 11,12-DiHETrE / 14,15-DiHETrE / 10,11-DiHDPE / 19,20-DiHDPE / 13-HODE / 5-HETE / 11-HETE / 12-HETE / 5-HEPE / 9(10)-EpOME / 12(13)-EpOME / EKODE / 11(12)-EpETE: unit not given here
Conditions: for 9,10,13-TriHOME / 9,12,13-TriHOME: bad chromatography; for 14,15-DiHETE: high blanks
Procedure: All animals were monitored with pulse oximetry, heart rate, ECG, systemic arterial blood pressure (ABP), pulmonary arterial pressure (PAP), central venous pressure (CVP) temperature, tidal volumes, respiratory rate and end tidal carbon dioxide. At baseline, and at 3 h, 6 h and at the end of the experiment, pulmonary capillary wedge pressure (PCWP) was measured together with arterial and venous blood gas analyses, as well as cardiac output calculations. Routine chemistry, including creatinine, bilirubin, glucose, electrolytes were collected at baseline and at the end of the experiment (Vetscan VS2®, Abaxis, Griesheim, Germany). Blood samples for measurement of AEPU plasma concentrations, as well as oxylipins (i.e., EpETrEs and their DiHETrE corresponding diols as well as related compounds with other polyunsaturated fatty acid precursors), were collected at baseline, 6 h and at the end of the experiment.
This meant nine subjects in each group to achieve 90% power of detecting a difference of this size given α = 0.05. Anticipating that not all experiments would reach completion, we used a sample size of 22. The results were analyzed using SPSS Statistics, version 24 (IBM Corp., Armonk, N.Y., United States). Normality was examined with the Shapiro-Wilk test, together with examination of histograms of data. Continuous variables were compared using Student’s t-test or Mann Whitney U test, as appropriate. Categorical variables were compared using Fischer’s exact test. Statistical significance was set at α < 0.05. Oxylipins with at least 80% of observations above limit of detection at both timepoints were included in pairwise comparisons of ratios and fold-change evaluations where observations below limit of detection (LOD) were substituted with 0.5 x LOD.

CCOCCOCCOCCCCCNC(=O)NC12CC3CC(CC(C3)C1)C2 [sEH-i]
13-HOTrE (time 0, individual pigs): 1.38 and 2.03 and 0.71 and 0.95 and 0.65
13-oxo-ODE (time 0, individual pigs): <LOD
14(15)-EpETE (time 0, individual pigs): <LOD
14(15)-EpETrE (time 0, individual pigs): <LOD
14,15-DiHETrE (time 0, individual pigs): 0.82 and 0.55 and 0.35 and 0.43 and 0.51
15(16)-EpODE (time 0, individual pigs): 12.33 and 9.22 and 4.38 and 5.90 and 3.04
15,16-DiHODE (time 0, individual pigs): 22.17 and 16.83 and 10.14 and 20.63 and 11.96
15-HEPE (time 0, individual pigs): <LOD
15-HETE (time 0, individual pigs): 0.31 and 0.33 and 0.20 and 0.29 and 0.16
15-HETrE (time 0, individual pigs): 0.19 and 0.21 and 0.13 and 0.18 and 0.10
15-oxo-ETE (time 0, individual pigs): 0.03 and <LOD and 0.043 and 0.0266
16(17)-EpDPE (time 0, individual pigs): <LOD
16,17-DiHDPE (time 0, individual pigs): 0.10 and 0.0746 and 0.0252 and 0.0444 and 0.03
17(18)-EpETE (time 0, individual pigs): <LOD
17,18-DiHETE (time 0, individual pigs): 0.69 and 0.45 and 0.26 and 0.66 and 0.46
17-HDoHE (time 0, individual pigs): <LOD
19(20)-EpDPE (time 0, individual pigs): <LOD
19,20-DiHDPE (time 0, individual pigs): 1.19 and 0.80 and 0.30 and 1.02 and 0.43
20-HETE (time 0, individual pigs): 0.11 and 0.12 and 0.0652 and 0.10 and 0.0444
EKODE (time 0, individual pigs): 0.36 and 0.27 and 0.38 and 0.31 and 0.33
LTB4 (time 0, individual pigs): <LOD and 0.17
PGD2 (time 0, individual pigs): <LOD
PGE2 (time 0, individual pigs): <LOD
PGF2a (time 0, individual pigs): <LOD and 0.0428
Resolvin D1 (time 0, individual pigs): <LOD
Resolvin D2 (time 0, individual pigs): <LOD
TXB2 (time 0, individual pigs): 0.0943 and 0.19 and 0.08601 and 0.18
9,10,13-TriHOME (time 0, individual pigs): 3.66 and 5.50 and 4.37 and 4.76 and 5.61
9,12,13-TriHOME (time 0, individual pigs): <LOD
14,15-DiHETE (time 0, individual pigs): 0.1158 and 0.09583 and 0.02876 and 0.02655 and 0.09648
5(6)-EpETrE (time 6, individual pigs): <LOD
5,6-DiHETrE (time 6, individual pigs): <LOD
5-HEPE (time 6, individual pigs): 0.06 and 0.18 and <LOD and 0.07 and 0.05
5-HETE (time 6, individual pigs): 0.3567 and 0.58 and 0.2089 and 0.4225 and 0.4419
5-oxo-ETE (time 6, individual pigs): 0.11 and 0.18 and <LOD and 0.14 and 0.15
7(8)-EpDPE (time 6, individual pigs): <LOD
7,8-DiHDPE (time 6, individual pigs): <LOD
8(9)-EpETE (time 6, individual pigs): <LOD
8(9)-EpETrE (time 6, individual pigs): <LOD
8,9-DiHETE (time 6, individual pigs): <LOD
8,9-DiHETrE (time 6, individual pigs): 0.10 and 0.07 and <LOD and 0.0449
8-HETE (time 6, individual pigs): 0.07 and 0.09 and 0.04 and 0.12 and 0.0759
9(10)-EpODE (time 6, individual pigs): 0.63 and 0.49 and 0.36 and 0.35 and 0.42
9(10)-EpOME (time 6, individual pigs): 1.87 and 1.33 and 0.60 and 1.51 and 2.48
9,10-DiHODE (time 6, individual pigs): 0.64 and 1.20 and 1.17 and 0.73 and 0.69
9,10-DiHOME (time 6, individual pigs): 5.75 and 8.57 and 9.02 and 5.97
9-HETE (time 6, individual pigs): <LOD
9-HODE (time 6, individual pigs): 13.28 and 24.06 and 22.88 and 16.64 and 15.68
9-HOTrE (time 6, individual pigs): 1.36 and 2.59 and 1.91 and 1.50 and 0.95
9-oxo-ODE (time 6, individual pigs): <LOD
10(11)-EpDPE (time 6, individual pigs): <LOD
10,11-DiHDPE (time 6, individual pigs): 0.07 and 0.03 and 0.0327 and 0.02 and 0.0362
11(12)-EpETE (time 6, individual pigs): 0.1179 and 0.09737 and 0.1269 and 0.06515 and 0.0705
11(12)-EpETrE (time 6, individual pigs): 0.05 and 0.0441 and 0.0274 and 0.0271
11,12-DiHETE (time 6, individual pigs): 0.0351 and 0.0319 and 0.0666 and 0.03 and 0.05
11,12-DiHETrE (time 6, individual pigs): 0.86 and 0.62 and 1.36 and 0.66 and 0.92
11-HETE (time 6, individual pigs): 0.42 and 0.30 and 0.66 and 0.25 and 0.40
12(13)-EpODE (time 6, individual pigs): 1.12 and 0.79 and 0.95 and 0.91
12(13)-EpOME (time 6, individual pigs): 5.25 and 4.08 and 1.60 and 5.63 and 7.56
12,13-DiHODE (time 6, individual pigs): 1.01 and 1.89 and 1.53 and 1.48 and 1.36
12,13-DiHOME (time 6, individual pigs): 16.00 and 24.72 and 21.84 and 22.49 and 19.00
12-HEPE (time 6, individual pigs): 0.08 and 0.11 and 0.06 and 0.0632 and 0.04
12-HETE (time 6, individual pigs): 1.11 and 0.86 and 0.59 and 0.65 and 0.46
12-oxo-ETE (time 6, individual pigs): <LOD
13(14)-EpDPE (time 6, individual pigs): <LOD
13,14-DiHDPE (time 6, individual pigs): 0.15 and 0.10 and 0.13 and 0.06
13-HODE (time 6, individual pigs): 42.16 and 101.75 and 49.69 and 56.11 and 42.57
13-HOTrE (time 6, individual pigs): 1.94 and 6.77 and 3.06 and 2.84 and 1.84
13-oxo-ODE (time 6, individual pigs): <LOD and 5.47
14(15)-EpETE (time 6, individual pigs): <LOD
14(15)-EpETrE (time 6, individual pigs): <LOD and 0.0855 and 0.08
14,15-DiHETrE (time 6, individual pigs): 1.69 and 1.48 and 1.65 and 0.72 and 0.63
15(16)-EpODE (time 6, individual pigs): 24.31 and 29.46 and 11.19 and 30.59 and 26.51
15,16-DiHODE (time 6, individual pigs): 54.83 and 45.60 and 30.98 and 42.25 and 33.76
15-HEPE (time 6, individual pigs): <LOD
15-HETE (time 6, individual pigs): 0.63 and 0.86 and 0.43 and 0.48
15-HETrE (time 6, individual pigs): 0.41 and 0.47 and 0.48 and 0.37 and 0.39
15-oxo-ETE (time 6, individual pigs): 0.0346 and <LOD and 0.03 and 0.0128
16(17)-EpDPE (time 6, individual pigs): <LOD
16,17-DiHDPE (time 6, individual pigs): 0.19 and 0.20 and 0.14 and 0.0527 and 0.085
17(18)-EpETE (time 6, individual pigs): <LOD
17,18-DiHETE (time 6, individual pigs): 1.22 and 1.33 and 1.55 and 0.59 and 1.01
17-HDoHE (time 6, individual pigs): <LOD
19(20)-EpDPE (time 6, individual pigs): <LOD
19,20-DiHDPE (time 6, individual pigs): 1.72 and 1.58 and 1.48 and 0.68 and 0.62
20-HETE (time 6, individual pigs): 0.11 and 0.12 and 0.08 and 0.10
EKODE (time 6, individual pigs): 0.88 and 0.74 and 0.47 and 0.87 and 1.05
LTB4 (time 6, individual pigs): <LOD and 0.28 and 0.38 and 0.18 and 0.43
PGD2 (time 6, individual pigs): <LOD and 0.01 and 0.00656
PGE2 (time 6, individual pigs): 0.095 and 0.06 and 0.20 and <LOD and 0.12
PGF2a (time 6, individual pigs): 1.61 and 0.65 and 4.40 and 0.44 and 2.56
Resolvin D1 (time 6, individual pigs): <LOD
Resolvin D2 (time 6, individual pigs): <LOD
TXB2 (time 6, individual pigs): 2.92 and 3.83 and 2.22 and 1.21 and 1.79
9,10,13-TriHOME (time 6, individual pigs): 2.86 and 3.12 and 7.92 and 7.73 and 5.56
9,12,13-TriHOME (time 6, individual pigs): <LOD and 0.24
14,15-DiHETE (time 6, individual pigs): 0.3645 and 0.4177 and 0.09663 and 0.04163 and 0.2578
